Target: T1, sGC α1/β1 heterodimer (Homo sapiens, UniProt Q02108+Q02153)
T1 construct: expressed in transfected cells; host or cells: CHO-K1 (clone #7, CHO-K1/sGC)
T1 sequence (Q02108 1-690): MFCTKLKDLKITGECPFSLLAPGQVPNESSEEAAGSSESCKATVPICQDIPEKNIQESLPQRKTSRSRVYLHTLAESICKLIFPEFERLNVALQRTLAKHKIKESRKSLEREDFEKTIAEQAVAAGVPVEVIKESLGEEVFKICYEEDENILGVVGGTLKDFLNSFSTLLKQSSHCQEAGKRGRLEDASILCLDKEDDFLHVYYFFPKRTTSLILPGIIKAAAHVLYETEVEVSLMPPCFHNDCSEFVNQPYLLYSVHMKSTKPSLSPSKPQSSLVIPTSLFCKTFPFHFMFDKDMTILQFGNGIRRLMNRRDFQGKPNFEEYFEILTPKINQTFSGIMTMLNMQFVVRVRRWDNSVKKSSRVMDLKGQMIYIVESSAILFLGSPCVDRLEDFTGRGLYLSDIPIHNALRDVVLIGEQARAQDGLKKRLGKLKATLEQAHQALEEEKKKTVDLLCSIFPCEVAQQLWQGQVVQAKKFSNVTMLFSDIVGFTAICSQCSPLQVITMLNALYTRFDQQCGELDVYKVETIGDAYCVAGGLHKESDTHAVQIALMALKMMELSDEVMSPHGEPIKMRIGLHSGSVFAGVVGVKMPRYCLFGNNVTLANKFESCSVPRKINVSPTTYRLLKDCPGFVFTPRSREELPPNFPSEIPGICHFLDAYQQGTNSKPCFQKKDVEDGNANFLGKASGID
T1 sequence (Q02153 1-619): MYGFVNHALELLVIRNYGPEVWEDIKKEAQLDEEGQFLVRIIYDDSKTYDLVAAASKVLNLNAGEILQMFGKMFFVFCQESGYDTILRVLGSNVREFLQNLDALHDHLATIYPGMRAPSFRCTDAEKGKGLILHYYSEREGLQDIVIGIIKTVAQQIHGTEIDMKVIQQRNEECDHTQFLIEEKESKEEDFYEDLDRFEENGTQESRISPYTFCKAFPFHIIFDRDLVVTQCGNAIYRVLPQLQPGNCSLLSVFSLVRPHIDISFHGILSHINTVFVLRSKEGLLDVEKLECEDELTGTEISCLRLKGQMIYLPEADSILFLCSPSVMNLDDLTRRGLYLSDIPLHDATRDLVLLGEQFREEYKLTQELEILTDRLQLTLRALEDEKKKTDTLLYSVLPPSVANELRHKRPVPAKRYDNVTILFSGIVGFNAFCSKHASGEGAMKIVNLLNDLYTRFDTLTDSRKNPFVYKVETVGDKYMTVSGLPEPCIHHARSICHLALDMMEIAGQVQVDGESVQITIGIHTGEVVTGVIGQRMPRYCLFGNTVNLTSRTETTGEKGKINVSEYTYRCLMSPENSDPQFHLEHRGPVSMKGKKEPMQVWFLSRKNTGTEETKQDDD
Experiment: Cell-Based sGC Functional Assay (CASA Assay), cGMP by HTRF in CHO-K1/sGC cells
Conditions: for EC50: cGMP production, 1 hr at 37° C., 4P fit, presence or absence of 1 μM DETA-NO not given, read-out: IP (nM) (inflection point); for % Act.: percent activation relative to maximum cGMP production of Compound A (= 100%); for Emax: CHO-K1, percent activation relative to maximum cGMP production of Compound A (= 100%), read-out: % Act.
Source text: Biological Assay 1: Cell-Based sGC Functional Assay (CASA Assay)
sGC is a heme-containing enzyme that converts GTP to secondary messenger cGMP. Increases in cGMP levels affect several physiological processes including vasorelaxation through multiple downstream pathways. […] Heme-dependent activators (HDAs) preferentially activate sGC containing a ferrous heme group. To determine the effect of sGC activators on enzyme activity, the CASA assay was developed to monitor the generation of cGMP in a cell line that stably expresses the heterodimeric sGC protein.
A CHO-K1 cell line stably expressing the sGC α1/β1 heterodimer was generated using a standard transfection protocol. CHO-K1 cells were transfected with plasmids pIREShyghsGCα1 and pIRESneo-hsGCβ1 simultaneously using FUGENE reagent. Clones that stably express both subunits were selected with hygromycin and neomycin for ˜2 weeks. Clone #7 was chosen for the assay and was designated CHO-K1/sGC. CHO-K1/sGC cells were maintained in F-K12 medium containing 10% heat-inactivated Fetal Bovine Serum (FBS), 100 μg/mL penicillin/streptomycin, 0.5 mg/mL hygromycin and 0.25 mg/mL G418. The cells were then cryopreserved in LN2. On the day of the assay, cells were thawed and resuspended in EBSS Assay Buffer (Sigma, E3024) supplemented with 5 mM MgCl2, 10 mM HEPES (4-(2-hydroxyethyl)piperazine-1-ethanesulfonic acid) and 0.05% BSA (bovine serum albumin) (EAB) and cell density was then adjusted to 4×10^5/mL with EAB. IBMX (3-isobutyl-1-methylxanthin, 0.5 mM) was added to inhibit degradation of cGMP. Compounds were diluted from DMSO stock solutions and added to the assay at a final DMSO concentration of 2.5%. Cells were incubated with compounds in the presence and absence of 1 μM of Diethylenetriamine/nitric oxide adduct (DETA-NO; Sigma, 17018) for 1 hr at 37° C. At the end of the incubation period, the reaction was terminated and the cells were lysed with the detection reagents from Cisbio Kits. The level of intracellular cGMP was determined using an HTRF-based assay kit (CisBio, 62GM2PEC), which detects the displacement of a fluorescence labeled cGMP from its specific antibody. The cGMP produced by test compounds was directly compared to the maximum cGMP production (this value was set to equal 100% activation.) of the published sGC-HDA Compound A:
[drawing 175] (Example 1 in WO 2010/065275, published Jun. 10, 2010). The test compounds' activities were then expressed as a percentage of Compound A, the standard in every experiment. This percent activation was calculated either in the presence or absence of DETA-NO which was then plotted. IP and maximum fold induction was derived using ADA analysis software for 4P fit.
The compounds in the Examples of the instant invention had inflection points (IP) less than or equal to 10 μM and most less than or equal to about 1 μM.

| SMILES | EC50 | % Act. | Emax |
| --- | --- | --- | --- |
| CC1(C(=O)NC2CC2)C(=O)Nc2nc(-c3cn4ccnc4c(Cc4ccc(F)cc4)n3)ncc21 (single isomer, unassigned) [Example 67B, N-Cyclopropyl-2-(8-(4-fluorobenzyl)imidazo[1,2-a]pyrazin-6-yl)-5-methyl-6-oxo-6,7-dihydro-5H-pyrrolo[2,3-d]pyrimidine-5-carboxamide] | 936 nM | 149% | – |
| O=C1Nc2nc(-c3cn4ccnc4c(Cc4ccc(F)cc4)n3)ncc2C1(C(=O)NC1CC1)C1CC1 (single isomer, unassigned) [Example 68A, N,5-dicyclopropyl-2-(8-(4-fluorobenzyl)imidazo[1,2-a]pyrazin-6-yl)-6-oxo-6,7-dihydro-5H-pyrrolo[2,3-d]pyrimidine-5-carboxamide] | 254 nM | – | 138% |
| O=C1Nc2nc(-c3cn4ccnc4c(Cc4ccc(F)cc4)n3)ncc2C1(C(=O)NC1CC1)C1CC1 (single isomer, unassigned) [Example 68B, N,5-dicyclopropyl-2-(8-(4-fluorobenzyl)imidazo[1,2-a]pyrazin-6-yl)-6-oxo-6,7-dihydro-5H-pyrrolo[2,3-d]pyrimidine-5-carboxamide] | 83 nM | 120% | – |
| CC1(C(=O)NC2CC2)C(=O)Nc2nc(-c3cn4ccnc4c(Cc4ccccc4F)n3)ncc21 (single isomer, unassigned) [Example 69A, N-cyclopropyl-2-(8-(2-fluorobenzyl)imidazo[1,2-a]pyrazin-6-yl)-5-methyl-6-oxo-6,7-dihydro-5H-pyrrolo[2,3-d]pyrimidine-5-carboxamide] | 38 nM | 179% | – |
| CC1(C(=O)NC2CC2)C(=O)Nc2nc(-c3cn4ccnc4c(Cc4ccccc4F)n3)ncc21 (single isomer, unassigned) [Example 69B, N-cyclopropyl-2-(8-(2-fluorobenzyl)imidazo[1,2-a]pyrazin-6-yl)-5-methyl-6-oxo-6,7-dihydro-5H-pyrrolo[2,3-d]pyrimidine-5-carboxamide] | 226 nM | 118% | – |
| O=C1Nc2nc(-c3cn4ccnc4c(Cc4ccccc4F)n3)ncc2C1(C(=O)NC1CC1)C1CC1 (single isomer, unassigned) [Example 70A, N,5-dicyclopropyl-2-(8-(2-fluorobenzyl)imidazo[1,2-a]pyrazin-6-yl)-6-oxo-6,7-dihydro-5H-pyrrolo[2,3-d]pyrimidine-5-carboxamide] | 179 nM | 169% | – |
| O=C1Nc2nc(-c3cn4ccnc4c(Cc4ccccc4F)n3)ncc2C1(C(=O)NC1CC1)C1CC1 (single isomer, unassigned) [Example 70B, N,5-dicyclopropyl-2-(8-(2-fluorobenzyl)imidazo[1,2-a]pyrazin-6-yl)-6-oxo-6,7-dihydro-5H-pyrrolo[2,3-d]pyrimidine-5-carboxamide] | 61 nM | 130% | – |
| CC(C)C1(C)C(=O)Nc2nc(-c3cn4ccnc4c(Cc4ccccc4)n3)ncc21 (single isomer, unassigned) [Example 95A, 2-(8-Benzylimidazo[1,2-a]pyrazin-6-yl)-5-isopropyl-5-methyl-5H-pyrrolo[2,3-d]pyrimidin-6(7H)-one] | 36 nM | – | 113% |
| O=C1Nc2nc(-c3cn4ccnc4c(CCC(F)(F)C(F)(F)F)n3)ncc2C1(c1ccc(Cl)cn1)C1CC1 (centres unmarked) [Example 7A, 5-(5-chloropyridin-2-yl)-5-cyclopropyl-2-(8-(3,3,4,4,4-pentafluorobutyl)imidazo[1,2-a]pyrazin-6-yl)-5H-pyrrolo[2,3-d]pyrimidin-6(7H)-one] | 343 nM | – | 113% |
| O=C1Nc2nc(-c3cn4ccnc4c(CCC(F)(F)C(F)(F)F)n3)nc(O)c2C1(c1ccc(Cl)cn1)C1CC1 (centres unmarked) [Example 8A, 5-(5-chloropyridin-2-yl)-5-cyclopropyl-4-hydroxy-2-(8-(3,3,4,4,4-pentafluorobutyl)imidazo[1,2-a]pyrazin-6-yl)-5H-pyrrolo[2,3-d]pyrimidin-6(7H)-one] | 1180 nM | – | 142% |
